Reference: patent publication US12257264B2, “Combination therapy for HIV with adenosine derivative and capsid inhibitors” (Brii Biosciences, Inc., priority 2021, dated 2025)
“And” between values parts separate entries of the source, which are not always exact repeats. Identical values can stand only once.

Experiment: Plasma exposures following IV infusion alone or in combination to Sprague-Dawley rats
Conditions: for Lenacapavir Concentrations in Rat Plasma When Dosed with Prodrug formula 4-A: Lenacapavir IV infusion 1.0 mg/kg with Prodrug formula 4-A
Description: The pharmacokinetics of EFdA and prodrug formula 4-A, as well as lenacapavir were studied in rats after IV infusion administration alone or in combination at a dose of 1.0 mg/kg each.
Formulations: The prodrugs and lenacapavir were formulated alone or in combination as solutions at 1.0 mg/mL each in 20% […], 10% Solutol aqueous solution within 0.5 hour prior to dose.
Dose Administration and Sample Collection: The in-life phase of this study was conducted at the WuXi Apptec (WuXi) at Shanghai, China in accordance with the WuXi Institutional Animal Care and Use Committee (IACUC) standard animal procedures along with the IACUC guidelines that are in compliance with the Animal Welfare Act, the Guide for the Care and Use of Laboratory Animals. and was approved by the IACUA Committee. Male Sprague-Dawley rats (0.262+/−0.019 kg) were used for the studies. Each drug was administered as a single dose by 30-min IV infusion (1 ml/kg) alone or in combination. Plasma samples were collected at 0 (pre-dose), 5, 10, 15 and 30 min, 1, 2, 4, 7, 12 and 24 h post-dose. Blood (approximately 0.1 mL) was processed immediately for plasma by centrifugation at 3,200 g at 4° C. for 10 min within half an hour of collection. Plasma samples were frozen and maintained at −70° C. until analyzed. To stabilize the prodrug at the sample collection and subsequent analysis, the following stabilizing reagents were added to the blood collection K2EDTA tubes on wet ice prior to sample collection: for each 100 mL of blood, 10 mL of premade inhibitor cocktail consists of 600 mM Citric Acid, 400 mM PMSF, 400 mM NaF, and 400 mM Dichlorvos.
Determination of EFdA and Prodrugs in plasma: Briefly, plasma (20 μL) was mixed with 100 l acetonitrile to precipitate protein. Consistent with sample collection procedure, the same cocktail protocol was also added to stabilize the prodrug in the standard and QC samples.
Bioanalysis: A Sciex API-6500 Plus triplequadrupole mass spectrometer coupled with a Waters Acquity UPLC system (Framingham, MA 01701) was used for quantitative analysis of plasma samples. The column was a Waters HSS T3 column (2.1×50 mm, 1.8 micrometer). The mobile phases used were: A, 0.1% formic acid in water; B, 0.1% formic acid in acetonitrile. For the analysis of EFdA and prodrugs in plasma, the flow rate was 0.6 mL/min with a total run time of 2.0 min. […] Detection of the prodrug and EFdA were achieved using positive ion electrospray mass spectroscopic mode using unit resolution mode. Multiple reaction monitoring (MRM) modes were used to quantify both prodrug and EFdA, e.g. the MRM transition for EFdA was 294.0-154.2 Da, and the transition for prodrug 4-A was 449.3-164.9 Da. For the analysis of lenacapavir in plasma, the flow rate was 0.7 mL/min with a total run time of 1.5 min. The HPLC gradient was initiated at 95% A/5% B for 0.50 min, followed by linear gradient increase to […] over the next 0.2 min; the gradient was subsequently maintained at 100% of mobile B over the next 0.7 min before ramping down to 95% mobile phase A within the following 0.1 min. Detection of lenacapavir was achieved using positive ion electrospray mass spectroscopic mode using unit resolution mode. Multiple reaction monitoring (MRM) modes were used to quantify lenacapavir, e.g. the MRM transition for lenacapavir was 968.1-869.4 Da. Peak areas were integrated by the Sciex program Analyst®, version 1.6.3, operating on a Windows 7 computer where concentrations were determined by a weighted (1/x2) linear regression of peak area ratios (peak area of EFdA/peak area of corresponding IS) versus the nominal concentrations of the plasma calibration standards. Calculations were performed on unrounded numbers. Overall, Analyst® determined the precision and accuracy for the calibration standards and QC samples.

Structure (SMILES): CC(C)(C#Cc1ccc(-c2ccc(Cl)c3c(NS(C)(=O)=O)nn(CC(F)(F)F)c23)c([C@H](Cc2cc(F)cc(F)c2)NC(=O)Cn2nc(C(F)(F)F)c3c2C(F)(F)[C@@H]2C[C@H]32)n1)S(C)(=O)=O [Lenacapavir, reference compound]
- Lenacapavir Concentrations in Rat Plasma When Dosed Alone (Lenacapavir IV infusion 1.0 mg/kg alone, 0.0830 hrs, individual animals): 485 ng/mL and 603 ng/mL and 667 ng/mL
- Lenacapavir Concentrations in Rat Plasma When Dosed Alone (Lenacapavir IV infusion 1.0 mg/kg alone, 0.167 hrs, individual animals): 845 ng/mL and 682 ng/mL and 734 ng/mL
- Lenacapavir Concentrations in Rat Plasma When Dosed Alone (Lenacapavir IV infusion 1.0 mg/kg alone, 0.250 hrs, individual animals): 810 ng/mL and 801 ng/mL and 894 ng/mL
- Lenacapavir Concentrations in Rat Plasma When Dosed Alone (Lenacapavir IV infusion 1.0 mg/kg alone, 0.500 hrs, individual animals): 612 ng/mL and 580 ng/mL and 984 ng/mL
- Lenacapavir Concentrations in Rat Plasma When Dosed Alone (Lenacapavir IV infusion 1.0 mg/kg alone, 1.00 hrs, individual animals): 166 ng/mL and 222 ng/mL and 240 ng/mL
- Lenacapavir Concentrations in Rat Plasma When Dosed Alone (Lenacapavir IV infusion 1.0 mg/kg alone, 2.00 hrs, individual animals): 104 ng/mL and 149 ng/mL and 164 ng/mL
- Lenacapavir Concentrations in Rat Plasma When Dosed Alone (Lenacapavir IV infusion 1.0 mg/kg alone, 4.00 hrs, individual animals): 102 ng/mL and 157 ng/mL and 195 ng/mL
- Lenacapavir Concentrations in Rat Plasma When Dosed Alone (Lenacapavir IV infusion 1.0 mg/kg alone, 7.00 hrs, individual animals): 185 ng/mL and 84.6 ng/mL and 141 ng/mL and 142 ng/mL
- Lenacapavir Concentrations in Rat Plasma When Dosed Alone (Lenacapavir IV infusion 1.0 mg/kg alone, 12.0 hrs, individual animals): 79.4 ng/mL and 106 ng/mL and 139 ng/mL
- Lenacapavir Concentrations in Rat Plasma When Dosed Alone (Lenacapavir IV infusion 1.0 mg/kg alone, 24.0 hrs, individual animals): 123 ng/mL and 141 ng/mL and 139 ng/mL
- Lenacapavir Concentrations in Rat Plasma When Dosed Alone (Lenacapavir IV infusion 1.0 mg/kg alone, 72.0 hrs, individual animals): 51.3 ng/mL and 59.7 ng/mL and 57.2 ng/mL and 110 ng/mL
- Lenacapavir Concentrations in Rat Plasma When Dosed with Prodrug formula 4-A (0.0830 hrs, individual animals): 460 ng/mL and 391 ng/mL and 314 ng/mL
- Lenacapavir Concentrations in Rat Plasma When Dosed with Prodrug formula 4-A (0.167 hrs, individual animals): 479 ng/mL and 589 ng/mL and 415 ng/mL
- Lenacapavir Concentrations in Rat Plasma When Dosed with Prodrug formula 4-A (0.250 hrs, individual animals): 623 ng/mL and 664 ng/mL and 375 ng/mL
- Lenacapavir Concentrations in Rat Plasma When Dosed with Prodrug formula 4-A (0.500 hrs, individual animals): 643 ng/mL and 714 ng/mL and 448 ng/mL
- Lenacapavir Concentrations in Rat Plasma When Dosed with Prodrug formula 4-A (1.00 hrs, individual animals): 170 ng/mL (2×) and 107 ng/mL
- Lenacapavir Concentrations in Rat Plasma When Dosed with Prodrug formula 4-A (2.00 hrs, individual animals): 135 ng/mL and 105 ng/mL and 94.7 ng/mL
- Lenacapavir Concentrations in Rat Plasma When Dosed with Prodrug formula 4-A (4.00 hrs, individual animals): 93.1 ng/mL and 101 ng/mL and 80.9 ng/mL
- Lenacapavir Concentrations in Rat Plasma When Dosed with Prodrug formula 4-A (7.00 hrs, individual animals): 140 ng/mL and 101 ng/mL and 72.3 ng/mL and 58.8 ng/mL
- Lenacapavir Concentrations in Rat Plasma When Dosed with Prodrug formula 4-A (12.0 hrs, individual animals): 139 ng/mL and 137 ng/mL and 158 ng/mL and 78.6 ng/mL
- Lenacapavir Concentrations in Rat Plasma When Dosed with Prodrug formula 4-A (24.0 hrs, individual animals): 129 ng/mL and 164 ng/mL and 176 ng/mL and 62.5 ng/mL
- Lenacapavir Concentrations in Rat Plasma When Dosed with Prodrug formula 4-A (72.0 hrs, individual animals): 40.1 ng/mL and 97.8 ng/mL and 97.2 ng/mL and 98.0 ng/mL
- concentration at 48 h (male, Sprague-Dawley, rat, in vivo, 1 mg/kg, Lenacapavir Concentrations in Rat Plasma When Dosed Alone): 107 ng/mL
- concentration at 0.083 h (male, Sprague-Dawley, rat, in vivo, 1 mg/kg, Lenacapavir Concentrations in Rat Plasma When Dosed Alone, Lenacapavir IV infusion 1.0 mg/kg alone, 0.0830 hrs, Mean): 612 ng/mL
- concentration at 0.083 h (male, Sprague-Dawley, rat, in vivo, 1 mg/kg, Lenacapavir Concentrations in Rat Plasma When Dosed Alone, Lenacapavir IV infusion 1.0 mg/kg alone, 0.0830 hrs, individual animals): 692 ng/mL
- concentration at 0.167 h (male, Sprague-Dawley, rat, in vivo, 1 mg/kg, Lenacapavir Concentrations in Rat Plasma When Dosed Alone, Lenacapavir IV infusion 1.0 mg/kg alone, 0.167 hrs, Mean): 739 ng/mL
- concentration at 0.167 h (male, Sprague-Dawley, rat, in vivo, 1 mg/kg, Lenacapavir Concentrations in Rat Plasma When Dosed Alone, Lenacapavir IV infusion 1.0 mg/kg alone, 0.167 hrs, individual animals): 694 ng/mL
- concentration at 0.25 h (male, Sprague-Dawley, rat, in vivo, 1 mg/kg, Lenacapavir Concentrations in Rat Plasma When Dosed Alone, Lenacapavir IV infusion 1.0 mg/kg alone, 0.250 hrs, Mean): 825 ng/mL
